# Experiments:
# Assay in all cases: relative viability (nuclei count vs DMSO), 5 days (fraction); higher = more cells survive
# 201T = system: 201T
# Summary of the method: (§1)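 Nuclei were stained with Hoechst during a one-step fixation (final 0.05% Triton X-100, 1% formaldehyde, 1 ug/ml Hoechst) carried out 5 days after dosing, then counted on 4× images. The cells, lung cancer lines in 1536-well plates, had been dosed by pin tool the day after seeding with one drug alone or a fixed anchor-drug dose plus five library-drug doses (not always all listed) in √10 steps. Relative viability is the nuclei count in treated wells divided by that in vehicle wells, and each value is the median of duplicate plates.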
# CAL-12T = system: CAL-12T
# Summary of the method: as §1
# COR-L23 = system: COR-L23
# Summary of the method: as §1
# HOP-62 = system: HOP-62
# Summary of the method: as §1
# LC-2-ad = system: LC-2-ad
# Summary of the method: as §1
# NCI-H1355 = system: NCI-H1355
# Summary of the method: as §1
# NCI-H1395 = system: NCI-H1395
# Summary of the method: as §1
# NCI-H1651 = system: NCI-H1651
# Summary of the method: as §1
# NCI-H1666 = system: NCI-H1666
# Summary of the method: as §1
# NCI-H1734 = system: NCI-H1734
# Summary of the method: as §1
# NCI-H1944 = system: NCI-H1944
# Summary of the method: as §1
# NCI-H1993 = system: NCI-H1993
# Summary of the method: as §1
# NCI-H2085 = system: NCI-H2085
# Summary of the method: as §1
# NCI-H2170 = system: NCI-H2170
# Summary of the method: as §1
# NCI-H2228 = system: NCI-H2228
# Summary of the method: as §1
# NCI-H322M = system: NCI-H322M
# Summary of the method: as §1
# NCI-H520 = system: NCI-H520
# Summary of the method: as §1
# NCI-H661 = system: NCI-H661
# Summary of the method: as §1
# NCI-H838 = system: NCI-H838
# Summary of the method: as §1
# RERF-LC-KJ = system: RERF-LC-KJ
# Summary of the method: as §1
smiles,measurement,setting,value
COCC1(CO)C(=O)C2CCN1CC2 (stereo not given) [PRIMA-1MET] + Cc1nc(NC(=O)N2CCC[C@H]2C(N)=O)sc1-c1ccnc(C(C)(C)C(F)(F)F)c1 [Alpelisib] (partner 2 µM),relative viability,201T; first compound 0.2 µM,1.04
same,relative viability,201T; first compound 0.6325 µM,0.971
same,relative viability,201T; first compound 2 µM,0.885
same,relative viability,201T; first compound 6.325 µM,1.05
same,relative viability,201T; first compound 20 µM,1.03
same,relative viability,CAL-12T; first compound 0.2 µM,1.19
same,relative viability,CAL-12T; first compound 0.6325 µM,1.29
same,relative viability,CAL-12T; first compound 2 µM,1.08
same,relative viability,CAL-12T; first compound 6.325 µM,1.42
same,relative viability,CAL-12T; first compound 20 µM,0.264
same,relative viability,COR-L23; first compound 0.2 µM,0.783
same,relative viability,COR-L23; first compound 0.6325 µM,0.699
same,relative viability,COR-L23; first compound 2 µM,0.869
same,relative viability,COR-L23; first compound 6.325 µM,0.726
same,relative viability,COR-L23; first compound 20 µM,0.0226
same,relative viability,HOP-62; first compound 0.2 µM,1.13
same,relative viability,HOP-62; first compound 0.6325 µM,0.986
same,relative viability,HOP-62; first compound 2 µM,0.732
same,relative viability,HOP-62; first compound 6.325 µM,1.18
same,relative viability,HOP-62; first compound 20 µM,0.487
same,relative viability,LC-2-ad; first compound 0.2 µM,0.909
same,relative viability,LC-2-ad; first compound 0.6325 µM,0.931
same,relative viability,LC-2-ad; first compound 2 µM,1.01
same,relative viability,LC-2-ad; first compound 6.325 µM,0.909
same,relative viability,LC-2-ad; first compound 20 µM,0.695
same,relative viability,NCI-H1355; first compound 0.2 µM,0.953
same,relative viability,NCI-H1355; first compound 0.6325 µM,0.7
same,relative viability,NCI-H1355; first compound 2 µM,0.766
same,relative viability,NCI-H1355; first compound 6.325 µM,0.86
same,relative viability,NCI-H1355; first compound 20 µM,0.852
same,relative viability,NCI-H1395; first compound 0.2 µM,1.13
same,relative viability,NCI-H1395; first compound 0.6325 µM,0.737
same,relative viability,NCI-H1395; first compound 2 µM,0.977
same,relative viability,NCI-H1395; first compound 6.325 µM,0.993
same,relative viability,NCI-H1395; first compound 20 µM,0.635
same,relative viability,NCI-H1651; first compound 0.2 µM,0.904
same,relative viability,NCI-H1651; first compound 0.6325 µM,0.981
same,relative viability,NCI-H1651; first compound 2 µM,1.17
same,relative viability,NCI-H1651; first compound 6.325 µM,0.962
same,relative viability,NCI-H1651; first compound 20 µM,0.837
same,relative viability,NCI-H1666; first compound 0.2 µM,1.1
same,relative viability,NCI-H1666; first compound 0.6325 µM,0.879
same,relative viability,NCI-H1666; first compound 2 µM,0.999
same,relative viability,NCI-H1666; first compound 6.325 µM,0.834
same,relative viability,NCI-H1666; first compound 20 µM,0.123
same,relative viability,NCI-H1734; first compound 0.2 µM,0.876
same,relative viability,NCI-H1734; first compound 0.6325 µM,0.658
same,relative viability,NCI-H1734; first compound 2 µM,0.679
same,relative viability,NCI-H1734; first compound 6.325 µM,0.73
same,relative viability,NCI-H1734; first compound 20 µM,0.3
same,relative viability,NCI-H1944; first compound 0.2 µM,1.01
same,relative viability,NCI-H1944; first compound 0.6325 µM,0.719
same,relative viability,NCI-H1944; first compound 6.325 µM,0.849
same,relative viability,NCI-H1944; first compound 20 µM,0.823
same,relative viability,NCI-H1993; first compound 0.2 µM,0.724
same,relative viability,NCI-H1993; first compound 0.6325 µM,0.706
same,relative viability,NCI-H1993; first compound 2 µM,0.628
same,relative viability,NCI-H1993; first compound 6.325 µM,0.768
same,relative viability,NCI-H1993; first compound 20 µM,0.664
same,relative viability,NCI-H2085; first compound 0.2 µM,1.04
same,relative viability,NCI-H2085; first compound 0.6325 µM,0.941
same,relative viability,NCI-H2085; first compound 2 µM,0.962
same,relative viability,NCI-H2085; first compound 6.325 µM,0.554
same,relative viability,NCI-H2085; first compound 20 µM,0.35
same,relative viability,NCI-H2170; first compound 0.2 µM,0.889
same,relative viability,NCI-H2170; first compound 0.6325 µM,0.749
same,relative viability,NCI-H2170; first compound 2 µM,0.864
same,relative viability,NCI-H2170; first compound 6.325 µM,0.847
same,relative viability,NCI-H2170; first compound 20 µM,0.733
same,relative viability,NCI-H2228; first compound 0.2 µM,1.06
same,relative viability,NCI-H2228; first compound 0.6325 µM,0.654
same,relative viability,NCI-H2228; first compound 2 µM,0.744
same,relative viability,NCI-H2228; first compound 6.325 µM,0.534
same,relative viability,NCI-H2228; first compound 20 µM,0.0746
same,relative viability,NCI-H322M; first compound 0.2 µM,0.942
same,relative viability,NCI-H322M; first compound 6.325 µM,0.907
same,relative viability,NCI-H322M; first compound 20 µM,0.671
same,relative viability,NCI-H520; first compound 0.2 µM,1.21
same,relative viability,NCI-H520; first compound 0.6325 µM,0.84
same,relative viability,NCI-H520; first compound 6.325 µM,0.831
same,relative viability,NCI-H520; first compound 20 µM,0.0746
same,relative viability,NCI-H661; first compound 0.2 µM,0.617
same,relative viability,NCI-H661; first compound 0.6325 µM,0.581
same,relative viability,NCI-H661; first compound 6.325 µM,0.602
same,relative viability,NCI-H661; first compound 20 µM,0.297
same,relative viability,NCI-H838; first compound 0.2 µM,1.26
same,relative viability,NCI-H838; first compound 0.6325 µM,0.968
same,relative viability,NCI-H838; first compound 2 µM,1.06
same,relative viability,NCI-H838; first compound 6.325 µM,1.13
same,relative viability,NCI-H838; first compound 20 µM,0.61
same,relative viability,RERF-LC-KJ; first compound 0.2 µM,0.797
same,relative viability,RERF-LC-KJ; first compound 0.6325 µM,0.835
same,relative viability,RERF-LC-KJ; first compound 2 µM,0.715
same,relative viability,RERF-LC-KJ; first compound 6.325 µM,1.01
same,relative viability,RERF-LC-KJ; first compound 20 µM,0.75

# Source: the supplement of paper PMC10307832
